From US5360803A, “Composition and method for treating cancer” (Dan Farber Cancer Institute, priority 1992, dated 1994)
Read-outs that look alike come from different tables or passages of the source.

How the values were obtained:
CRL 1420 cells = assay: colony assay of Example 1 with human pancreatic carcinoma CRL 1420 cell line; type: cell-based; details: for Selectivity: CV-1/CRL-1420; for IC50: Homo sapiens, 24 h;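 as to all read-outs here: colony formation assay, cells exposed for 24 h then regrown 7 to 10 days without compound, colonies stained with crystal violet, control given medium alone, normal reference CV-1 monkey kidney epithelial cells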
CV-1 cells = assay: selective killing assay, colony number reduced to 50% of control, normal monkey kidney epithelial cell line CV-1; type: cell-based; details: 24 hours treatment; for IC50: Primates
From the text: The control received culture media only.

EJ cells = assay: colony assay of Example 1 with human bladder carcinoma EJ cell line; type: cell-based; details: for Selectivity: CV-1/EJ; for IC50: Homo sapiens, EJ, 24 h, Table IV, human bladder carcinoma, 24 hours treatment;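 as to all read-outs here: colony formation assay with 24 h compound exposure at 37 °C, then 7–10 days drug-free regrowth, colonies stained with crystal violet, controls given medium alone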
LOX cells = assay: colony assay of Example 1 with human melanoma LOX cell line; type: cell-based; details: for Selectivity: CV-1/LOX; for IC50: Homo sapiens, LOX, 24 h;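 as to all read-outs here: colony formation assay with 24 h exposure at 37 °C, then 7 to 10 days of regrowth, crystal violet staining of colonies, control wells given medium alone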
CX-1 cells = assay: selective killing assay, colony number reduced to 50% of control, human colon carcinoma cell line CX-1; type: cell-based; details: for Selectivity (ratio of IC50 for CV-1 and IC50 for CX-1): CV-1/CX-1; for IC50: Homo sapiens, CX-1, Table III;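 as to all read-outs here: colonies stained with crystal violet and counted, control cells given medium alone, exposure at 37 °C, normal monkey kidney epithelial CV-1 cells as the non-cancer comparator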
Description: Human colon carcinoma cell line CX-1 or normal monkey kidney epithelial cell line CV-1 was chosen as representatives of cancer cells and normal cells, respectively. […] CX-1 cells (2,000 cells/well) and CV-1 cells (1,000 cells/well) were plated in 24-well plastic culture plates. […] The control received culture media only. Cells were treated with compounds of General Formulas (I) to (V) at 37° C. for 24 hours. After rinsing with fresh culture medium three times, the cells were further incubated at 37° C. for 7 to 10 days. Cell colonies were fixed and stained with 2% crystal violet in 70% ethanol for 10 minutes and rinsed in water. […] The selectivity is defined as the ratio of IC50 for CV-1 and IC50 for CX-1.

human melanoma LOX = assay: survival of nude mice implanted with human melanoma LOX; type: in vivo, male athymic Swiss nu/nu mouse (human tumor); details: Mus musculus, ip, 24 h, read-out: T/C
Description: LOX, a human melanoma cell line, grown subcutaneously in nude mice was excised, trypsinized to yield a single cell suspension using a metal grid with a […] mesh. […] Five million viable trypan blue negative cells made up in 0.1 ml of Dulbecco modified Eagle medium (DMFE) were injected into the peritoneal cavity of a male athymic Swiss nu/nu mouse. The control group and each treatment group consisted of 5 to 10 mice. Treatment was commenced the following day by intraperitoneal injection.
Ten control mice received 0.25 ml of 2% dextrose on these days the treated groups were injected with the compounds of this invention. […] T/C is the ratio, expressed as a percentage of the mean survival age of the treated group to the mean survival age of the untreated control group.

[1] = Table VII, human pancreatic carcinoma, 24 hours treatment
[2] = Table V, human melanoma, 24 hours treatment
[3] = human colon carcinoma, 24 hours treatment, colony count after 7 to 10 days
[4] = CV-1, Table III, normal monkey kidney epithelial cells, colony count after 7 to 10 days

## CCn1c(=Cc2oc3cc4ccccc4cc3[n+]2CC)sc(=C2Sc3c(ccc4ccccc34)N2C)c1=O [Compound 237]
CRL 1420 cells
  Selectivity: 267
CRL 1420 cells; [1]
  IC50: 0.03 µg/mL
CV-1 cells; CV-1, 24 h, Table VII
  IC50: 8 µg/mL

## CCn1c(=Cc2oc3c4ccccc4ccc3[n+]2CC)sc(=C2Sc3c(ccc4ccccc34)N2C)c1=O [Compound 238]
EJ cells
  Selectivity: 2000
  IC50: 0.01 µg/mL
LOX cells
  Selectivity: 1000
LOX cells; [2]
  IC50: 0.02 µg/mL
CX-1 cells
  Selectivity (ratio of IC50 for CV-1 and IC50 for CX-1): 400
CX-1 cells; [3]
  IC50: 0.05 µg/mL
CRL 1420 cells
  Selectivity: 1000
CRL 1420 cells; [1]
  IC50: 0.02 µg/mL
CV-1 cells; CV-1, 24 h, Table IV
  IC50: 20 µg/mL
CV-1 cells; CV-1, 24 h, Table V
  IC50: 20 µg/mL
CV-1 cells; CV-1, 24 h, Table VII
  IC50: 20 µg/mL
CV-1 cells; [4]
  IC50: 20 µg/mL

## CCn1c(=Cc2cccc[n+]2CC)sc(=C2Sc3c(ccc4ccccc34)N2C)c1=O [Compound 239]
EJ cells
  Selectivity: 250
  IC50: 0.08 µg/mL
LOX cells
  Selectivity: 400
LOX cells; [2]
  IC50: 0.05 µg/mL
CX-1 cells
  Selectivity (ratio of IC50 for CV-1 and IC50 for CX-1): 200
CX-1 cells; [3]
  IC50: 0.1 µg/mL
CRL 1420 cells
  Selectivity: 400
CRL 1420 cells; [1]
  IC50: 0.05 µg/mL
CV-1 cells; CV-1, 24 h, Table IV
  IC50: 20 µg/mL
CV-1 cells; CV-1, 24 h, Table V
  IC50: 20 µg/mL
CV-1 cells; CV-1, 24 h, Table VII
  IC50: 20 µg/mL
CV-1 cells; [4]
  IC50: 20 µg/mL

## CCn1c(=Cc2sc3ccc4ccccc4c3[n+]2CC)sc(=C2Sc3ccccc3N2C)c1=O [Compound 30]
CX-1 cells; [3]
  IC50: 0.01 µg/mL
CV-1 cells; [4]
  IC50: 2 µg/mL
Human melanoma LOX; 2.5 mg/kg i.p. on day 1, 4, 6, 8
  response vs control in vivo at 2.5 mg/kg: 171%

## CCn1c(=Cc2ccc3ccccc3[n+]2CC)sc(=C2Sc3ccccc3N2C)c1=O [Compound 341]
LOX cells
  Selectivity: 200
LOX cells; [2]
  LOX(IC50): 0.03 µg/mL
CRL 1420 cells
  Selectivity: 200
CRL 1420 cells; [1]
  CRL-1420(IC50): 0.03 µg/mL
CV-1 cells; Table V
  CV-1 (IC50): 6 µg/mL
CV-1 cells; Table VII
  CV-1 (IC50): 6 µg/mL

## CCn1c(=C2CCC[n+]3c2sc2ccccc23)sc(=C2Sc3ccccc3N2C)c1=O [Compound 343]
Human melanoma LOX; 5 mg/kg i.p. on day 1, 3, 4, 6, 8, 10, 13
  response vs control in vivo at 5 mg/kg: 188%

## CCn1c(=Cc2cccc[n+]2CC)sc(=C2Sc3ccccc3N2C)c1=O [Compound 342]
Human melanoma LOX; 5 mg/kg i.p. on day 1, 5, 8, 11, 14
  response vs control in vivo at 5 mg/kg: > 350%

## CCn1c(=CC2=[N+](CC)CCS2)sc(=C2SC3=C(CCCC3)N2C)c1=O [Compound 211]
Human melanoma LOX; 5 mg/kg i.p. on day 1, 4, 8, 10
  response vs control in vivo at 5 mg/kg: 194%

## CCn1c(=Cc2sc3c4ccccc4ccc3[n+]2CC)sc(=C2Sc3ccc4ccccc4c3N2C)c1=O [Compound 92]
CX-1 cells
  Selectivity (ratio of IC50 for CV-1 and IC50 for CX-1): 500
CX-1 cells; Table III, human colon carcinoma, 24 hours treatment, colony count after 7 to 10 days
  CX-1 (IC50): 0.04 µg/mL
CV-1 cells; Table III, normal monkey kidney epithelial cells, colony count after 7 to 10 days
  CV-1 (IC50): 20 µg/mL
Human melanoma LOX; 2.5 mg/kg i.p. on day 1, 2, 3, 4, 6, 7, 8, 10, 11
  response vs control in vivo at 2.5 mg/kg: 186%

## CCn1c(=Cc2scc[n+]2CC)sc(=C2Oc3ccc(-c4ccccc4)cc3N2C)c1=O [Compound 210]
EJ cells
  Selectivity: 100
  IC50: 0.1 µg/mL
CX-1 cells
  Selectivity (ratio of IC50 for CV-1 and IC50 for CX-1): 100
CX-1 cells; [3]
  IC50: 0.1 µg/mL
CRL 1420 cells
  Selectivity: 111
CRL 1420 cells; [1]
  IC50: 0.09 µg/mL
CV-1 cells; CV-1, 24 h, Table IV
  IC50: 10 µg/mL
CV-1 cells; CV-1, 24 h, Table VII
  IC50: 10 µg/mL
CV-1 cells; [4]
  IC50: 10 µg/mL

## CCn1c(=Cc2scc(C)[n+]2CC)sc(=C2Sc3ccc4ccccc4c3N2C)c1=O [Compound 344]
Human melanoma LOX; 5 mg/kg i.p. on day 1, 4, 8, 10, 12
  response vs control in vivo at 5 mg/kg: > 288%

## CCn1c(=Cc2oc3ccccc3[n+]2CC)sc(=C2Oc3ccc4ccccc4c3N2C)c1=O [Compound 117]
CX-1 cells
  Selectivity (ratio of IC50 for CV-1 and IC50 for CX-1): 133
CX-1 cells; [3]
  IC50: 0.03 µg/mL
CV-1 cells; [4]
  IC50: 4 µg/mL

## CC[N+]1=C(C=c2sc(=C3Oc4ccc5ccccc5c4N3C)c(=O)n2Cc2ccccc2)SCC1 [Compound 314]
CX-1 cells
  Selectivity (ratio of IC50 for CV-1 and IC50 for CX-1): 200
CX-1 cells; [3]
  IC50: 0.05 µg/mL
CV-1 cells; [4]
  IC50: 10 µg/mL

## C=CCn1c(=Cc2oc3ccc4ccccc4c3[n+]2C)sc(=C2Oc3c(ccc4ccccc34)N2C)c1=O [Compound 319]
EJ cells
  Selectivity: 300
  IC50: 0.02 µg/mL
CV-1 cells; CV-1, 24 h, Table IV
  IC50: 6 µg/mL

## CCn1c(=CC2=[N+](CC)CCS2)sc(=C2Sc3ccc4ccccc4c3N2C)c1=O [Compound 86]
CX-1 cells
  Selectivity (ratio of IC50 for CV-1 and IC50 for CX-1): 200
CX-1 cells; [3]
  IC50: 0.05 µg/mL
CV-1 cells; [4]
  IC50: 10 µg/mL

## CCn1c(=Cc2sc3ccccc3[n+]2CC)sc(=C2SC3=C(CCCC3)N2C)c1=O [Compound 129]
CX-1 cells
  Selectivity (ratio of IC50 for CV-1 and IC50 for CX-1): 100
CX-1 cells; [3]
  IC50: 0.1 µg/mL
CV-1 cells; [4]
  IC50: 10 µg/mL
